Assay in all cases: In vitro antifungal activity (minimum inhibitory concentration)
Common to all, as to format: cell-based

The subject of test [1] is Candida albicans ATCC10259. The note with it: read-out: Minimum Inhibitory Concentration (MIC) CA. The method, then: (§1) The antifungal activities of representative 1,2-dithiin compounds listed below were determined in vitro using three fungal cultures: Candida albicans ATCC10259 (CA), Cryptococcus neoformans ATCC36556 (CN), and Aspergillus fumigatus ATCC13073 (AF).
(§2) The method used to determine in vitro antifungal activity is discussed in McGinnis, M. R., Laboratory Handbook of Medical Mycology, Academic Press, New York, London, p 661 (1980); and Drouget, E.; Dupont, B.; Improvist, L.; Vivian, M. A.; and Tortorano, A. M.; "Disc Agar Diffusion and Microplate Automatized Techniques for In Vitro Evaluation of Antifungal Agents on Yeast and Sporulated Pathogenic Fungi" in In Vitro and In Vivo Evaluation of Antifungal Agents, Eds. lwata, K. and Vanden Bossche, H., Elsevier Science Publishers, New York, Oxford, p. 303 (1986).

In test [2] the test system is Cryptococcus neoformans ATCC36556. To be noted: read-out: Minimum Inhibitory Concentration (MIC) CN. The method, then:
as §1, §2

The test system of test [3] is Aspergillus fumigatus ATCC13073. The note with it: read-out: Minimum Inhibitory Concentration (MIC) AF. On the procedure: as §1, §2

SMILES strings stand for the structures. Values after ≈ are worked out from the molar mass of the structure shown.

The results in this text go back to patent publication US5648354A, “1,2-dithiins having antifungal activity” (Shaman Pharmaceuticals, Inc., priority 1995, dated 1997).

Turning to `CC1(C)OCC(COCC2=CC=C(COCC3COC(C)(C)O3)SS2)O1` (stereo not drawn) [3,6-Bis[[(2,2-dimethyl-1,3-dioxolan-4-yl)methyloxy]methyl]-1,2-dithiin], the MIC in test [1], in test [2] and in test [3] was greater than 100 µg/mL throughout.

`O=C(OCC1=CC=C(CO)SS1)c1ccccc1` [3-(Benzoyloxymethyl)-6-(hydroxymethyl)-1,2-dithiin]: the MIC in test [1] worked out at 6.3 µg/mL (≈ 22.5 µM); in test [2], 3.1 µg/mL (≈ 11.1 µM); in test [3], 3.1 µg/mL (≈ 11.1 µM).

On to `OCC1=CC=C(COc2cc(C(F)(F)F)ccc2Cl)SS1` [3-(Hydroxymethyl)-6-[(2-chloro-5-trifluoromethyl-phenyloxy)methyl]-1,2-dithiin], for which the MIC in test [1] is 1.6 µg/mL (≈ 4.51 µM); in test [2], 1.6 µg/mL (≈ 4.51 µM); in test [3] it was 6.3 µg/mL (≈ 17.8 µM).

In the case of `OCC1=CC=C(COc2ccccc2F)SS1` [3-(Hydroxymethyl)-6-[(2-fluorophenyloxy)methyl]-1,2-dithiin], the MIC amounted to 3.1 µg/mL (≈ 11.5 µM) in test [1], 1.6 µg/mL (≈ 5.92 µM) in test [2] and 3.1 µg/mL (≈ 11.5 µM) in test [3].

For `OCC1=CC=C(COc2ccccc2C(F)(F)F)SS1` [3-(Hydroxymethyl)-6-[(2-trifluoromethylphenyloxy)methyl]-1,2-dithiin], the MIC was determined as 25 µg/mL (≈ 78 µM) in test [1], 6.3 µg/mL (≈ 19.7 µM) in test [2] and 50 µg/mL (≈ 156 µM) in test [3].

Take `C#Cc1cccc(OCC2=CC=C(CO)SS2)c1` [3-(Hydroxymethyl)-6-[(3-ethynylphenyloxy)methyl]-1,2-dithiin]: the MIC in test [1] is 1.6 µg/mL (≈ 5.79 µM); in test [2], 1.6 µg/mL (≈ 5.79 µM); in test [3], 6.3 µg/mL (≈ 22.8 µM).

Take `OCC1=CC=C(COc2cccc(O)c2)SS1` [3-(Hydroxymethyl)-6-[(3-hydroxyphenyloxy)methyl]-1,2-dithiin]: the MIC in test [1] is 50 µg/mL (≈ 186 µM); in test [2] it was 100 µg/mL (≈ 373 µM); in test [3], greater than 100 µg/mL.

For `O=c1ccc(O)nn1CC1=CC=C(CO)SS1` [3-(Hydroxymethyl)-6-[(3-hydroxypyridazin-6-one-1-yl)methyl]-1,2-dithiin], the MIC in test [1], in test [2] and in test [3] was greater than 100 µg/mL throughout.

On to `OCC1=CC=C(COc2ccc(O)nn2)SS1` [3-(Hydroxymethyl)-6-[(3-hydroxypyridazine-6-oxy)methyl]-1,2-dithiin], for which the MIC in test [1], in test [2] and in test [3] was greater than 100 µg/mL throughout.

Take `O=c1ccc([N+](=O)[O-])cn1CC1=CC=C(CO)SS1` [3-(Hydroxymethyl)-6-[(5-nitropyrid-2-one-1-yl)methyl]-1,2-dithiin]: the MIC in test [1] is greater than 100 µg/mL; in test [2], 100 µg/mL (≈ 335 µM); in test [3], greater than 100 µg/mL.

In the case of `OCC1=CC=C(COc2ccccc2)SS1` [3-(Hydroxymethyl)-6-[(phenyloxy)methyl]-1,2-dithiin], the MIC stood at 25 µg/mL (≈ 99.1 µM) in test [1], 12.5 µg/mL (≈ 49.5 µM) in test [2] and 25 µg/mL (≈ 99.1 µM) in test [3].

Take `O=c1ccccn1CC1=CC=C(CO)SS1` [3-(Hydroxymethyl)-6-[(pyrid-2-one-1-yl)methyl]-1,2-dithiin]: the figures for the MIC in test [1], in test [2] and in test [3] were greater than 100 µg/mL, 12.5 µg/mL (≈ 49.3 µM) and greater than 100 µg/mL, respectively.

With `OCC1=CC=C(COc2ccccn2)SS1` [3-(Hydroxymethyl)-6-[(pyridyl-2-oxy)methyl]-1,2-dithiin], the MIC in test [1], in test [2] and in test [3] was 3.1 µg/mL (≈ 12.2 µM) throughout.

Take `OCC1=CC=C(COc2cccnc2)SS1` [3-(Hydroxymethyl)-6-[(pyridyl-3-oxy)methyl]-1,2-dithiin]: the MIC in test [1] was 3.1 µg/mL (≈ 12.2 µM); in test [2], 1.6 µg/mL (≈ 6.32 µM); in test [3] it was 3.1 µg/mL (≈ 12.2 µM).

In the case of `CN(C)c1cccc(OCC2=CC=C(CO)SS2)c1` [3-(Hydroxymethyl)-6-[[3-(N,N-dimethylamino)phenyloxy]methyl]-1,2-dithiin], the MIC was greater than 50 µg/mL in test [1], 50 µg/mL (≈ 169 µM) in test [2] and 100 µg/mL (≈ 338 µM) in test [3].

On to `CC1(C)OCC(COCC2=CC=C(CO)SS2)O1` (stereo not drawn) [3-(Hydroxymethyl)-6-[[(2,2-dimethyl-1,3-dioxolan-4-yl)methyloxy]methyl]-1,2-dithiin], for which the MIC in test [1], in test [2] and in test [3] was greater than 100 µg/mL each time.

For the compound `OCC1=CC=C(COCC(O)CO)SS1` (stereo not drawn) [3-(Hydroxymethyl)-6-[methyloxy(2,3-dihydroxypropane-1-yl)]-1,2-dithiin], the MIC in test [1], in test [2] and in test [3] was greater than 100 µg/mL each time.

As to `OCC1=CC=C(COc2nc3ccccc3nc2O)SS1` [3-(Hydroxymethyl)-6-[methyloxy[3-hydroxyquinoxalin-2-yl]]-1,2-dithiin], the MIC was found to be 50 µg/mL (≈ 156 µM) in test [1], 25 µg/mL (≈ 78 µM) in test [2] and 100 µg/mL (≈ 312 µM) in test [3].

On to `COC(=O)c1ccccc1OCC1=CC=C(CO)SS1` [3-(Hydroxymethyl)-6-[methyloxy[methyl benzoate-2-yl]]-1,2-dithiin], for which the figures for the MIC in test [1], in test [2] and in test [3] were 6.3 µg/mL (≈ 20.3 µM), 6.3 µg/mL (≈ 20.3 µM) and 12.5 µg/mL (≈ 40.3 µM), respectively.

For the compound `COC(=O)c1cccc(OCC2=CC=C(CO)SS2)c1` [3-(Hydroxymethyl)-6-[methyloxy[methyl benzoate-3-yl]]-1,2-dithiin], the values for the MIC in test [1], in test [2] and in test [3] were 3.1 µg/mL (≈ 9.99 µM), 6.3 µg/mL (≈ 20.3 µM) and 25 µg/mL (≈ 80.5 µM), respectively.

For the compound `OCC1=CC=C(CSc2nnnn2-c2ccc(O)cc2)SS1` [3-(Hydroxymethyl)-6-[methylthio-[1-(4-hydroxyphenyl)tetrazol-5-yl]]-1,2-dithiin], the MIC was found to be 25 µg/mL (≈ 70.9 µM) in test [1], 6.3 µg/mL (≈ 17.9 µM) in test [2] and 12.5 µg/mL (≈ 35.5 µM) in test [3].

In the case of `O=[N+]([O-])c1ccc(OCC2=CC=C(CO)SS2)nc1` [3-(hydroxymethyl)-6-[(5-nitropyridyl-2-oxy)methyl]-1,2-dithiin], the values for the MIC in test [1], in test [2] and in test [3] were 0.2 µg/mL (≈ 0.67 µM), 0.1 µg/mL (≈ 0.335 µM) and 0.4 µg/mL (≈ 1.34 µM), respectively.

Regarding `OCC1=CC=C(COc2ccc(-n3ccnc3)cc2)SS1` [3-(hydroxymethyl)-6-[[4-(imidazol-1-yl)phenyloxy]methyl]-1,2-dithiin], the MIC is 12.5 µg/mL (≈ 39.3 µM) in test [1], 100 µg/mL (≈ 314 µM) in test [2] and 100 µg/mL (≈ 314 µM) in test [3].

Turning to `COC(=O)c1ccc(OCC2=CC=C(CO)SS2)cc1` [3-(hydroxymethyl)-6-[methyloxy[methyl benzoate-4-yl]]-1,2-dithiin], the MIC in test [1] came to 3.1 µg/mL (≈ 9.99 µM); in test [2] it was 3.1 µg/mL (≈ 9.99 µM); in test [3] it was 12.5 µg/mL (≈ 40.3 µM).

For `CC1(C)OCC(COCC2=CC=C(COCC(O)CO)SS2)O1` (stereo not drawn) [3-[[(2,2-Dimethyl-1,3-dioxolan-4-yl)methyloxy]methyl]-6-[methyloxy(2,3-dihydroxypropane-1-yl)]-1,2-dithiin], the MIC in test [1], in test [2] and in test [3] was greater than 100 µg/mL in each case.
